Here are results for one compound from patent publication US7678390B2, “Carbon monoxide as a biomarker and therapeutic agent” (priority 1999, dated 2010).

In one data set the test system is p38 MAP kinase. In words: LPS-induced MAP kinase activation, Western blot (p38). It is filed as cell-based, mouse. The conditions noted are these: RAW 264.7 macrophages, LPS in the presence of CO. The text has this: (§1) Animals. Male C57BL/6 and IL-10 (−/−) mice were purchased from Jackson Laboratory (Bar Harbor, Me.), and allowed to acclimate for one week with rodent chow and water ad libitum. The MKK (−/−) mice were generated as previously described [Lu, et al., EMBO J. 18:1845-1857 (1999)]. Wild type littermates were used as controls. All animals were housed in accordance with guidelines from the American Association for Laboratory Animal Care and Research Protocols and were approved by the Animal Care and Use Committee of Yale University School of Medicine. Reagents. All reagents were purchased from Sigma Chemical Co. (St Louis, Mo.) unless specified otherwise. Plasmid Construct. Plasmid pSFFV/HO-1 was constructed by insertion of the rat HO-1 cDNA [Shibahara, et al., Proc. Natl. Acad. Sci. USA. 82: 7865-7869 (1985)] downstream of the Friend spleen focus-forming virus 5′ long-terminal repeat in the mammalian expression vector pSFFV/neo [Fuhlbrigge, et al, Proc. Natl. Acad. Sci. USA. 85: 5649-5653 (1988)] (kindly provided by Stanley Korsmeyer). Transfection. […] Gas samples were taken by the analyzer through a port in the top of the chambers at a rate of 1 L/min and analyzed by electrochemical detection, with a sensitivity of 10-600 ppm. Concentration levels were measured hourly and there were no fluctuations in the CO concentrations once the chamber had equilibrated (approximately 5 min). […]
On the technique in general: A western blot detects proteins with antibodies after separation by electrophoresis.

A further data set relates to rats. In words: Tolerability of low concentrations of CO in rats. The format is in vivo, rat. An excerpt:
Animals were exposed to >98% O2 or 98% O2+CO mixtures at a flow rate of 12 liters/min in a 3.70-cubic-foot glass exposure chamber. Animals were supplied food and water during the exposures. CO at a concentration of 1% (10,000 ppm) in compressed air was mixed with >98% O2 in a stainless steel mixing cylinder prior to entering the exposure chamber. By varying the flow rates of CO into the mixing cylinder, concentrations delivered to the exposure chamber were controlled. Because the flow rate was primarily determined by the O2 flow, only the CO flow was changed to generate the different concentrations delivered to the exposure chamber. A carbon monoxide analyzer (Interscan Corporation, Chatsworth, Calif.) was used to measure CO levels continuously in the chamber. Gas samples were taken by the analyzer through a port in the top of the exposure chamber at a rate of 1 liter/min and analyzed by electrochemical detection with a sensitivity of 10 ppm to 600 ppm. CO levels in the chamber were recorded at hourly intervals and there were no changes in chamber CO concentrations once the chamber had equilibrated. O2 concentrations in the chamber were determined using a gas spectrometer.

The test system of the next data set is MKK3(−/−) mice given LPS. In words: LPS-induced serum cytokines in MKK3(-/-) mice. The format is in vivo, mouse. The note with it: LPS 1 mg/kg, 250 ppm CO.
Source text: as §1

In the case of `[C-]#[O+]` [CO, carbon monoxide], in the data set with p38 MAP kinase, the “LPS-induced p38 MAP kinase activation” value is given as “significantly augmented”. The “500 ppm as fraction of the lethal concentration of CO” value in the data set with rats (in our model (data not shown)) is “one twentieth”. Moreover, in the data set on rats (rats exposed to CO (50-500 ppm) alone), the untoward effects entry was “did not exhibit any untoward effects”. Also, in the data set with MKK3(−/−) mice given LPS, the “LPS-induced TNF-α production” value was “did not affect” and the “serum IL-10 levels after LPS” value is recorded as “did not exhibit augmented serum IL-10 levels”.
